# The source made the active and inactive calls. The rule behind the calls is not given here.
# Biological target: Prostaglandin E2 receptor EP2 subtype (Homo sapiens) (UniProt P43116)
# Test: compounds shifting PGE2 potency at EP2 – cell-based, human EP2, PGE2 EC50 shift, dose response (AID 1421)
# Settings: EP2-expressing cells, PGE2 EC50 shift by compound
# Chain of Prostaglandin E2 receptor EP2 subtype (Homo sapiens) (P43116 whole entry, looked up): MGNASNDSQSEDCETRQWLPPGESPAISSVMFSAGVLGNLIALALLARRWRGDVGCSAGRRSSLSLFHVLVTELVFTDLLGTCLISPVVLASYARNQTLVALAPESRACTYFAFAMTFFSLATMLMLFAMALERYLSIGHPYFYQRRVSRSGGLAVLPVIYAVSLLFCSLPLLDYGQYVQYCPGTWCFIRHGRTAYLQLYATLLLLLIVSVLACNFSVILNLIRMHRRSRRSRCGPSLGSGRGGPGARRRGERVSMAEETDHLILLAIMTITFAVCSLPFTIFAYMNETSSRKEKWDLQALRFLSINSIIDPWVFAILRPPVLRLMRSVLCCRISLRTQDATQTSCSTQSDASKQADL
row,Structure (SMILES),outcome
1,N#CC1=C(N)S[C@H](C(=O)C23CC4CC(CC(C4)C2)C3)[C@H]1c1ccncc1,active
2,O=C(Nc1ccccc1N1CCCCC1)c1ccccc1F,active
3,COC(=O)c1sc2nc(N3CCCCC3)c3c(c2c1N)CCCC3,active
4,CCOP(=S)(OCC)Oc1nc(Cl)c(Cl)cc1Cl,active

# Further lines, results first:
row,outcome,Structure (SMILES)
1,active,Cn1cccc1/C=C1\CC(C(C)(C)C)C/C(=C\c2cccn2C)C1=O (configuration not stated)
2,active,CCOC(=O)c1cnc(SC)nc1Sc1ccccc1Cl
3,active,CCOC(=O)C1CCN(c2c(-c3ccccc3)c3cc(Cl)ccc3[nH]c2=O)CC1
4,active,CSc1ncc2c(n1)-c1cc(C)ccc1SC2
5,active,O=C1C2C3c4ccccc4C(c4ccccc43)[C@@H]2c2nc3ccccc3n21 (some centres not stated)
6,active,Cc1ccc(NC2=C(C(=O)c3ccccc3)N(C)S(=O)(=O)c3ccccc32)cc1
7,active,CCOP(=O)(OCC)c1nc(-c2cccc3ccccc23)oc1NCc1ccc(OC)cc1

# Same assay, conditions: EP2-expressing cells, PGE2 EC50 shift by compound; measured here: PGE2 EC50 at 6.7 uM compound
row,Structure (SMILES),PGE2 EC50 with compound [nM]
1,N#CC1=C(N)S[C@H](C(=O)C23CC4CC(CC(C4)C2)C3)[C@H]1c1ccncc1,0.96
2,O=C(Nc1ccccc1N1CCCCC1)c1ccc2nccnc2c1,1.35
3,COc1cc2nc(N3CCN(C(=O)C4CCCO4)CC3)nc(N)c2cc1OC (configuration not stated),0.85
4,C[C@H]1CC[C@@H](C(C)(C)O)CC2=C1CC[C@@H]2C,1.06
5,O=S1(=O)N=C(N(CCO)/N=C/C=C/c2ccccc2)c2ccccc21,2.08
6,Cc1cc(-c2sccc2C)nc(-n2cccc2)n1,2.5
7,CCOC(=O)CNC(=O)c1ccc2c(c1)OCCO2,2.56
8,CCCSc1nc(N2CCOCC2)c2c(c1C#N)CCCC2,1.06
9,COCC(=O)N(C)c1nnc(-c2cnc(C)cn2)s1,1.36
10,O=C1/C(=C/c2cccnc2)SC(=NCc2ccccc2)N1Cc1ccccc1,1.29
11,CCCn1c(SCC(=O)Nc2sc(C)c(C)c2C(=O)OCC)nc2c1c(=O)n(C)c(=O)n2C,1.35
12,CCOc1ccc(C(C)=O)cc1CC(C(N)=O)C(N)=O,1.11
13,COc1ccc(-n2c(COc3cccc4ccccc34)nnc2SCC(=O)NCc2ccco2)cc1,1.07
14,O=C(c1ccc2c(c1)OCO2)N(Cc1cccs1)C1(C(=O)NC2CCCCC2)CCCCC1,1.08
15,CC(C)Sc1nc2sc3c(c2c2nnc(SCC(=O)NCc4ccco4)n12)CCCC3,0.93
16,O=C(CSc1ncnc2c1oc1ccccc12)Nc1ccccc1C(F)(F)F,1.17
17,COc1ccc(S(=O)(=O)N(Cc2ccccc2)Cc2nc(-c3ccccc3)no2)cc1,1.16
18,CCC(=O)Oc1ccc(C(CC)C(CC)c2ccc(OC(=O)CC)cc2)cc1 (configuration not stated),0.32
19,CCN(CC)S(=O)(=O)c1c(OC)cc(C)c(Cl)c1C,2.56
20,O=C(O)c1nc2nc(Cl)c(Cl)nc2[nH]1,1.28

# Now from value to compound:
row,PGE2 EC50 with compound [nM],Structure (SMILES)
1,1.8,Cc1cc(NC(=O)C2=C(O)c3ccccc3S(=O)(=O)N2C)no1
2,0.93,CSc1nc(Oc2ccccc2)c2sccc2n1
3,1.14,CCOC(=O)c1c(NC(=O)Cn2nnc3ccccc32)sc2c1CCC(C)C2 (configuration not stated)
4,1,CCn1c(-c2ccccc2)c(C(=O)CCl)c2ccccc21
5,1.25,CC(NC(c1ccccc1)c1ccccc1)C(=O)N1CCCc2ccccc21 (configuration not stated)
6,2.77,O=C(O)c1ccc(C(=O)O)c(C(=O)Nc2ccc3c(c2)Cc2ccccc2-3)c1
7,0.74,O=c1c(O)c(-c2ccccc2)oc2ccc3occc3c12
8,0.97,Cc1cccc(-c2csc(N)c2C(=O)OC(C)C)c1
9,1.14,COc1c(Cl)cc(Cl)cc1C(=O)n1nc(C)cc1C
10,2.57,Cc1ccccc1Cn1c(-c2cncs2)nc2ccccc21
11,2.48,CCOC(=O)c1cnc2ccc(OCC)cc2c1N(C)Cc1ccccc1
12,0.33,CCOC(=O)C(CC)Sc1ncnc2c1nnn2-c1ccc(F)cc1 (configuration not stated)
13,1.87,Cc1ccc(-c2cc3nn(-c4ccccc4)c(N)c3c(=O)o2)cc1
14,0.76,CCn1c(=S)[nH]c2c(c1=O)C(C)(C)Cc1ccccc1-2
15,0.83,Cc1cccc(OC(=O)c2sc(Cl)nc2C)c1
16,1.44,Cn1cccc1/C=C1\CC(C(C)(C)C)C/C(=C\c2cccn2C)C1=O (configuration not stated)
17,0.87,CCOC(=O)CSc1nc(-c2ccccc2)nc2ccccc12
18,0.94,CCSc1nc2ccccc2n1Cc1ccccc1F
19,1.07,CCOC(=O)c1cnc(SC)nc1Sc1ccccc1Cl
20,1.25,O=c1cc(N2CCCCC2)c(-c2ccccc2)nn1Cc1ccccc1
21,1.47,Cc1nc2ccccn2c1C(=O)CSc1ccc(Cl)cc1Cl
22,1.6,CC(C)N(CCNC(=O)c1oc(=O)c2ccccc2c1-c1ccccc1)Cc1ccco1
23,1.48,COc1cccc(N=c2oc3c(C)ncc(CO)c3cc2C(=O)Nc2ccccc2OC)c1
24,0.9,CCOC(=O)n1c(=O)n(Cc2ccc(Cl)c(Cl)c2)c2ccccc21
25,0.5,CCOc1ccc(-c2nnc3n2N=C(c2ccc(OC)cc2)CS3)cc1
26,1.25,O=c1c2oc3ccccc3c2[nH]c(=S)n1-c1ccccc1

# Source: PubChem BioAssay AID1421 (Emory University Molecular Libraries Screening Center, 2008)
